The source of these data is patent publication US12391669B2, “Substituted pyrimidines as IRE1 kinase inhibitors” (THE REGENTS OF THE UNIVERSITY OF CALIFORNIA, priority 2018, dated 2025).

In general, IC50 refers to the concentration needed to halve the response being measured.

Holding throughout (type): biochemical
One assay addresses IRE1β kinase (Homo sapiens (Human), UniProt Q76MJ5). The assay can be described thus: IRE1β kinase IC50.
A further assay addresses IRE1α kinase (Homo sapiens (Human), UniProt O75460). The assay can be described thus: IRE1α kinase IC50.
In a further assay the target is IRE1α RNase (Homo sapiens (Human), UniProt O75460). As to the kind of experiment: IRE1α RNase IC50.

The structures appear in SMILES notation. Like-named read-outs stand apart in the source and are kept apart here. A value given as a limit tells only on which side of the number the result lay.

Sequence of IRE1α kinase (O75460 19-977): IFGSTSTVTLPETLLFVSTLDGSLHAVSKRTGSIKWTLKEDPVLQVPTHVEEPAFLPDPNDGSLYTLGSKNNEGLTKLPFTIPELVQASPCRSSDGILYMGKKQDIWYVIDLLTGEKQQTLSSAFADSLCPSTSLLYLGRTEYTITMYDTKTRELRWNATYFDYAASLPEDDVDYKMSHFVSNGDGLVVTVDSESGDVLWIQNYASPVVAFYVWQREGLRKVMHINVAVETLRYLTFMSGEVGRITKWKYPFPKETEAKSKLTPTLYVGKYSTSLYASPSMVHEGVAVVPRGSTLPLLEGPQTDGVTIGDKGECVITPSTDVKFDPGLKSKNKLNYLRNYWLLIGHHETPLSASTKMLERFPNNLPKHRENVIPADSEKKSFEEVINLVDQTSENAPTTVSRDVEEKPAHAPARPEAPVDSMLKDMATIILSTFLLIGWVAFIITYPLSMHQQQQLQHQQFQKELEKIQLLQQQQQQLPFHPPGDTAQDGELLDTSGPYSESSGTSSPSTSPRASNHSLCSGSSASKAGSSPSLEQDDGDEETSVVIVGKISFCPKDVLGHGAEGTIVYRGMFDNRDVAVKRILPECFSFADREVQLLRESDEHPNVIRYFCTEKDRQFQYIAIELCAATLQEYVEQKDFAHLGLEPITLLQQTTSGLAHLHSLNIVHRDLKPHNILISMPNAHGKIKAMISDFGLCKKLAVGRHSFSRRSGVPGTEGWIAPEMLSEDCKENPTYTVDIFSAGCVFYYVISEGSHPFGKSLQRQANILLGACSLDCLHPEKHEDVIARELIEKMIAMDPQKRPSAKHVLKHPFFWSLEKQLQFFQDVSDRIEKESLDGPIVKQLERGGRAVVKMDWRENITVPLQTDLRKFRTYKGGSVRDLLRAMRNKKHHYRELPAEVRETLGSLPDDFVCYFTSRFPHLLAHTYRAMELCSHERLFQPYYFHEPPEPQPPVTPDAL
Sequence of IRE1α RNase (O75460 19-977): as above
Sequence of IRE1β kinase (Q76MJ5 35-926): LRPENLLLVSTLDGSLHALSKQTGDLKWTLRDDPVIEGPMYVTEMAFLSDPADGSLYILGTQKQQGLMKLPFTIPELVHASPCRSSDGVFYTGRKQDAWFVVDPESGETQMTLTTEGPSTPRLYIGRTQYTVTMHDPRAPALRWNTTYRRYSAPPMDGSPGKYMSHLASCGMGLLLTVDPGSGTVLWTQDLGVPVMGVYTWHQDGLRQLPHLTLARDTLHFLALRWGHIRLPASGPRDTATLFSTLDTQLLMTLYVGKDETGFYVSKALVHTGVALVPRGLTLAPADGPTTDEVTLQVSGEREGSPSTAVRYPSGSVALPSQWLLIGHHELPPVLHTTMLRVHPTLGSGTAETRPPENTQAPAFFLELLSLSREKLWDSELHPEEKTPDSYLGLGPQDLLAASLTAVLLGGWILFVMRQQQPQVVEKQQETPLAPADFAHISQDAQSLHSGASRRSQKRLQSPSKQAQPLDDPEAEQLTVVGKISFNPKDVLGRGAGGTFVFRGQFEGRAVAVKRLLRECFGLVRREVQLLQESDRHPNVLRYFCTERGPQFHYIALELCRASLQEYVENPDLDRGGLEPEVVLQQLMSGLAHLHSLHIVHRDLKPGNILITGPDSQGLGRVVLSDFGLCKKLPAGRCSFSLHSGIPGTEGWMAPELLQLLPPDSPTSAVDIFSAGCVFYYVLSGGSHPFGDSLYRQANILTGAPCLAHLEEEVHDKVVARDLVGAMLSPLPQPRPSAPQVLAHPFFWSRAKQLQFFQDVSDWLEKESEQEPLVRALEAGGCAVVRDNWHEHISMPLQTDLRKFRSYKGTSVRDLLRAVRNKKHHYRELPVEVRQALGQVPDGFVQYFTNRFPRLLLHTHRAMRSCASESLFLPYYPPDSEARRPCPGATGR

On to `O=S(=O)(Nc1ccc(Oc2ncsc2-c2ccnc(N[C@H]3CCCNC3)n2)cc1F)c1ccccc1Cl` [compound 25], for which the IC50 amounted to 32 nM at IRE1β kinase, 117 nM on IRE1α kinase and 46 nM against IRE1α RNase ((HF)).

`Cc1ccc2c(NS(=O)(=O)c3ccccc3Cl)cccc2c1Oc1nccnc1-c1ccnc(N[C@H]2CCCNC2)n1` [compound 96]: the IC50 worked out at 120 nM on IRE1β kinase, 98 nM against IRE1α kinase and 117 nM against IRE1α RNase ((HF)).

For `O=S(=O)(Nc1ccc(Oc2nccnc2-c2ccnc(N[C@H]3CCCNC3)n2)c2ccccc12)c1ccccc1Cl` [compound 84, (S)-2-chloro-N-(4-(3-(2-(piperidin-3-ylamino)pyrimidin-4-yl)pyrazin-2-yloxy)naphthalen-1-yl)benzenesulfonamide], the IC50 is 1980 nM on IRE1β kinase and 296 nM at IRE1α kinase.

`Cc1ccc(C(=O)N(C)Cc2ccccc2Cl)cc1Oc1ncsc1-c1ccnc(N[C@H]2CCCNC2)n1` [compound 55, (S)—N-(2-chlorobenzyl)-N,4-dimethyl-3-(5-(2-(piperidin-3-ylamino)pyrimidin-4-yl)thiazol-4-yloxy)benzamide] yielded an IC50 against IRE1α kinase ((HF)) of 3180 nM.

As to `O=S(=O)(Nc1ccc(Oc2nccnc2-c2ccnc(N[C@H]3CCCNC3)n2)cc1F)c1ccccc1Cl` [compound 77, (S)-2-chloro-N-(2-fluoro-4-(3-(2-(piperidin-3-ylamino)pyrimidin-4-yl)pyrazin-2-yloxy)phenyl)benzenesulfonamide], the IC50 was determined as 2100 nM against IRE1β kinase and 6200 nM on IRE1α kinase.

Turning to `c1cc(Cc2nc3ccccc3[nH]2)cc(Oc2ncsc2-c2ccnc(N[C@H]3CCCNC3)n2)c1` [compound 35, (S)-4-(4-(3-((1H-benzo[d]imidazol-2-yl)methyl)phenoxy)thiazol-5-yl)-N-(piperidin-3-yl)pyrimidin-2-amine], on IRE1α RNase ((HF)), half-maximal inhibition (IC50) required 153 nM.

On to `O=S(=O)(Cc1ccccc1Cl)Nc1ccc(Oc2ncsc2-c2ccnc(N[C@H]3CCCNC3)n2)cc1F` [compound 11, (S)-1-(2-chlorophenyl)-N-(2-fluoro-4-(5-(2-(piperidin-3-ylamino)pyrimidin-4-yl)thiazol-4-yloxy)phenyl)methane sulfonamide], for which the IC50 came to 119 nM against IRE1α kinase ((HF)) and 24 nM against IRE1α RNase ((HF)).

`Cc1ccc(C(=O)NCc2ccccc2Cl)cc1Oc1ncsc1-c1ccnc(N[C@H]2CCCNC2)n1` [compound 20, (S)—N-(2-chlorobenzyl)-4-methyl-3-(5-(2-(piperidin-3-ylamino)pyrimidin-4-yl)thiazol-4-yloxy) benzamide] showed an IC50 at IRE1α kinase ((HF)) of 55 nM. The “IRE1α RNase IC50” value on IRE1α RNase (result in words, pIRE1α) is given as “No inhibition of pIRE1α”.

As to `O=C(NCc1ccccc1Cl)c1cccc(Oc2ncsc2-c2ccnc(N[C@H]3CCCNC3)n2)c1` [compound 51, (S)—N-(2-chlorobenzyl)-3-(5-(2-(piperidin-3-ylamino)pyrimidin-4-yl)thiazol-4-yloxy)benzamide], the IC50 against IRE1α kinase ((HF)) turned out to be 524 nM. In other words, the sub-micromolar range.

Take `Cc1cc(NS(=O)(=O)c2ccccc2Cl)ccc1Oc1ncsc1-c1ccnc(N[C@H]2CCCNC2)n1` [compound 39]: the IC50 at IRE1α kinase ((HF)) was determined as 1140 nM.

For the compound `O=S(=O)(NCc1cccc(Oc2ncsc2-c2ccnc(N[C@H]3CCCNC3)n2)c1)c1ccccc1Cl` [compound 43, (S)-2-chloro-N-(3-(5-(2-(piperidin-3-ylamino)pyrimidin-4-yl)thiazol-4-yloxy)benzyl)benzenesulfonamide], 1600 nM corresponded to half-maximal inhibition against IRE1α kinase ((HF)) (IC50).

Regarding `c1ccc2[nH]c(Cc3ccc(Oc4nccnc4-c4ccnc(N[C@H]5CCCNC5)n4)cc3)nc2c1` [compound 88, (S)-4-(3-(4-((1H-benzo[d]imidazol-2-yl)methyl)phenoxy)pyrazin-2-yl)-N-(piperidin-3-yl)pyrimidin-2-amine], the values for the IC50 at IRE1β kinase and against IRE1α kinase were greater than 10000 nM and 7300 nM, respectively.

In the case of `Cc1nc(Oc2ccc(NS(=O)(=O)c3ccccc3Cl)c3ccccc23)c(-c2ccnc(N[C@H]3CCCNC3)n2)s1` [compound 67, (S)-2-chloro-N-(4-(2-methyl-5-(2-(piperidin-3-ylamino)pyrimidin-4-yl)thiazol-4-yloxy)naphthalen-1-yl)benzenesulfonamide], the figures for the IC50 on IRE1α kinase ((HF)) and at IRE1α RNase ((HF)) were 63 nM and 19 nM, respectively.

In the case of `Cc1ccc(C(=O)Nc2ccccc2Cl)cc1Oc1ncsc1-c1ccnc(N[C@H]2CCCNC2)n1` [compound 16, (S)—N-(2-chlorophenyl)-4-methyl-3-(5-(2-(piperidin-3-ylamino)pyrimidin-4-yl)thiazol-4-yloxy)benzamide], the IC50 against IRE1β kinase was greater than 10000 nM; at IRE1α kinase ((HF)), 307 nM; against IRE1α kinase ((RB)), 228 nM.

With `c1ccc2[nH]c(Cc3ccc(Oc4ncsc4-c4ccnc(N[C@H]5CCCNC5)n4)cc3)nc2c1` [compound 30, (S)-4-(4-(4-((1H-benzo[d]imidazol-2-yl)methyl)phenoxy)thiazol-5-yl)-N-(piperidin-3-yl)pyrimidin-2-amine], the IC50 against IRE1β kinase turned out to be 8400 nM; against IRE1α kinase it was 439 nM; at IRE1α RNase, 118 nM.

Turning to `O=S(=O)(Nc1cccc2c(Oc3ncsc3-c3ccnc(N[C@H]4CCCNC4)n3)cccc12)c1ccccc1Cl` [compound 47, (S)-2-chloro-N-(5-(5-(2-(piperidin-3-ylamino)pyrimidin-4-yl)thiazol-4-yloxy)naphthalen-1-yl)benzenesulfonamide], the IC50 at IRE1β kinase was 181 nM; against IRE1α kinase it was 10 nM; against IRE1α RNase ((HF)), 8.3 nM.

For `O=S(=O)(Cc1ccccc1Cl)Nc1ccc(Oc2nccnc2-c2ccnc(N[C@H]3CCCNC3)n2)cc1F` [compound 73, (S)-1-(2-chlorophenyl)-N-(2-fluoro-4-(3-(2-(piperidin-3-ylamino)pyrimidin-4-yl)pyrazin-2-yloxy)phenyl) methane sulfonamide], the IC50 at IRE1β kinase turned out to be 1570 nM; at IRE1α kinase it was 961 nM.
